Results as given in publication PMC12587601 (Antimicrobial Agents and Chemotherapy, 2025).
Marks after values point to notes of the source that are not given here.

Assays:
[1] = parameters: method as in PMID 19210693; settings: cross-over pharmacokinetic study; cited from earlier work
[2] = Population pharmacokinetic analysis of ritonavir plasma concentrations (CHAPAS-4 pharmacokinetic sub-study, week 6, NONMEM)
Method: The trial included children with HIV from Zambia, Uganda, and Zimbabwe, aged 3–15 years, weighing at least 14 kg (Table 1), receiving abacavir-, zidovudine-, or stavudine-containing NRTI backbone and failing on ART according to WHO criteria (confirmed viral load >1,000 copies/mL after adherence counseling or CD4 criteria for failure or clinical criteria for failure). A nested pharmacokinetic sub-study was conducted within the CHAPAS-4 trial. […] Written informed consent was given by parents/caregivers, and local and national ethics committees approved the main trial and nested pharmacokinetic sub-study.
The dose depended on the companion PI (Table 2). NRTI backbones were also dosed according to weight bands. Children were followed up for 96 weeks. Pharmacokinetic blood samples were collected after week 6 of study treatment. Samples were collected at pre-dose, 0.5 (only for those on TAF/FTC), 1, 2, 4, 6, 8, 12, and 24 hours post-dose, and plasma was stored at −80°C. On the day of pharmacokinetic blood sampling, study drugs were administered under direct observation, with food (breakfast with 5% fat, ~250 kCal). All non-ART co-medications were taken at least 2 hours after study drugs.
R v4.2.2 via RStudio (Posit Public Benefit Corporation) and Pirana v2.9.9 (Certara, Inc.) were utilized to visualize and process the data, and Perl Speaks NONMEM v5.2.6 (Department of Pharmacy, Uppsala University) was used for automation of the analysis processes ([17]).
We tested one- and two-compartment disposition models and several absorption models (sequential zero- and/or first-order, with lag time or transit compartments). Simple first-order elimination as well as first-pass and saturable elimination through a liver compartment were tested. We included between-subject variability (BSV) on disposition parameters and between-occasion variability (BOV) on absorption parameters, assuming a log-normal distribution. Combined additive and proportional error models to describe residual unexplained variability were evaluated. Samples with undetectable drug concentrations were treated as censored at the limit of detection (LOD), which was imputed as 30% of the LLOQ ([19]), and handled using a modified version of the M6 method by Beal ([20]). The undetectable (i.e., censored) values were imputed to half of the LOD value (LOD/2), and the additive error was inflated by LOD/2. If a series of undetectable values was present, the value closest to the peak concentration was retained, while all trailing values were excluded from the model fit but retained for simulation-based diagnostics.
(§1) Covariates were maintained if they reached statistical significance of P < 0.05 on forward addition and P < 0.01 on backward elimination. […] The performance of intermediate and final models was assessed both numerically and using goodness of fit plots, and by simulation-based diagnostics such as visual predictive checks (VPC) ([23]). Parameter precision was evaluated using the sampling importance resampling (SIR) procedure ([24]). The effect of covariates on the simulated area under the curve from 0 to 24 hours (AUC0–24 h) for all study arms was visualized using a forest plot based on 1,000 simulations accounting for parameter uncertainty ([25]).

[3] = Covariate effects forest plot of simulated ritonavir AUC0–24 h (1,000 simulations accounting for parameter uncertainty); parameters: species or system African children with HIV; settings: reference a child of 26 kg receiving 100 mg of ritonavir in combination with darunavir
Method: as §1

**Q.** For CC(C)c1nc(CN(C)C(=O)N[C@H](C(=O)N[C@@H](Cc2ccccc2)C[C@H](O)[C@H](Cc2ccccc2)NC(=O)OCc2cncs2)C(C)C)cs1 [ritonavir], which “Lowering of plasma AUC of ritonavir by darunavir” value [1] is on record?
**A.** Its value is 14%.

**Q.** And the “Observed Cmax of ritonavir, median (interquartile range)” value (“Observed Cmax of ritonavir, median” below) ([2]; atazanavir/ritonavir once daily, weight band 14–19.9 kg, ATV/r 200/75 mg, 3 out of 12 children got 100 mg ritonavir instead of 75 mg)?
**A.** Its value is 2.68 (2.33–3.25)^a mg/L.

**Q.** What about the “Observed Cmax of ritonavir, median” value ([2]; darunavir/ritonavir once daily, weight band 20–24.9 kg, DRV/r 600/100 mg) of the same compound?
**A.** Its value is 1.27 (1.10–1.52) mg/L.

**Q.** And the “Observed Cmax of ritonavir, median” value ([2]; darunavir/ritonavir once daily, weight band ≥35 kg, DRV/r 800/100 mg)?
**A.** The value was 0.81 (0.53–1.04) mg/L.

**Q.** What about the “Between-occasion variability, Bioavailability” value ([2]; human, in vivo) of the same compound?
**A.** Its value is 40.1 (35.2–46.0) %.

**Q.** What about the “Between-occasion variability, First-order absorption rate constant” value ([2]; human, in vivo) of the same compound?
**A.** The value was 114 (90.0–141) %.

**Q.** What about the “Between-occasion variability, Lag time” value ([2]; human, in vivo) of the same compound?
**A.** The value was 62.0 (54.5–70.2) %.

**Q.** What about the “Between-occasion variability, Zero-order rate of absorption” value ([2]; human, in vivo) of the same compound?
**A.** The value was 52.5 (42.7–63.0) %.

**Q.** And the “Between-subject variability, Clearance” value ([2]; human, in vivo)?
**A.** Its value is 13.1 (10.2–15.8) %.

**Q.** What about the “Extra variability for unobserved doses” value ([2]; human, in vivo) of the same compound?
**A.** The value was 2.14 (1.53–2.42) fold change.

**Q.** What about the “First-order absorption rate constant, typical value (95% confidence interval)” value ([2]; human, in vivo) of the same compound?
**A.** Its value is 1.16 (0.893–1.89) 1/h.

**Q.** And the “Lag time, typical value (95% confidence interval)” value ([2]; human, in vivo)?
**A.** Its value is 0.981 (0.934–1.06) h.

**Q.** What about the “Zero-order absorption duration, typical value (95% confidence interval)” value ([2]; human, in vivo) of the same compound?
**A.** The value was 2.45 (2.05–2.80) h.

**Q.** What about the “Central volume of distribution, typical value (95% confidence interval)” value ([2]; human, in vivo, po) of the same compound?
**A.** The value was 54.5 (48.9–60.4) L.

**Q.** And the “Clearance, typical value (95% confidence interval)” value ([2]; human, in vivo, po)?
**A.** The value was 10.5 (9.22–11.9) L/h.

**Q.** What about the Cmax ([2]; human, in vivo, po) of the same compound?
**A.** The Cmax was 1320 ng/mL.

**Q.** What about the “Intercompartmental clearance, typical value (95% confidence interval)” value ([2]; human, in vivo, po) of the same compound?
**A.** Its value is 1.19 (0.851–1.58) L/h.

**Q.** What about the “Peripheral volume of distribution, typical value (95% confidence interval)” value ([2]; human, in vivo, po) of the same compound?
**A.** Its value is 134 (38.8–330) L.

**Q.** What about the Cmax ([2]; human, in vivo, po, 100 mg, Observed Cmax of ritonavir, median (interquartile range)) of the same compound?
**A.** The Cmax was 2760 ng/mL.

**Q.** What about the “Model-based AUC0–24 h of ritonavir, median (interquartile range)” value ([2]; lopinavir/ritonavir twice daily, weight band 20–24.9 kg, daily dose LPV/r 400/100 mg) of the same compound?
**A.** The value was 10.3 (7.30–12.8) mg·h/L.

**Q.** And the “Observed Cmax of ritonavir, median” value ([2]; lopinavir/ritonavir twice daily, weight band ≥35 kg, daily dose LPV/r 800/200 mg)?
**A.** The value was 0.80 (0.47–1.42) mg/L.

**Q.** What about the “Increase of ritonavir AUC0–24 h by atazanavir” value [3] of the same compound?
**A.** The value was 99.0%.
